Test system: Jurkat cells
Experiment: (r) Cell cytotoxicity assay
Type: cell-based, human
Settings: 24 hours
Experimental: 1×10^5 Jurkat cells (immortalised human T lymphocytes) are added to the appropriate number of wells of a 96 well plate in 100 μL of media (RPMI supplemented with 10% foetal bovine serum). 1 μL of DMSO control (final concentration 1.0% v/v) or test compound (final concentration 20, 5 or 1 μg/mL) is added to the wells and incubated at 37° C., 5% CO2. After 24 hours, the plate is centrifuged at 1200 rpm for 3 minutes and the supernatant discarded. Cells are then resuspended in 150 μL (final concentration 7.5 μg/mL) of propidium iodide (PI) in PBS and incubated at 37° C., 5% CO2 for 15 minutes. After 15 minutes, cells are analysed by flow cytometry (BD accuri) using the FL3 window. The % viability is calculated as the % of cells that are PI negative in the test wells normalised to the DMSO control.

Row | SMILES | % Viability at 1 μg/mL | % Viability at 5 μg/mL | % Viability at 20 μg/mL
1 | COc1cc(Nc2cc(Oc3ccc(NC(=O)Nc4cc(NS(C)(=O)=O)cc(C(C)(C)C)c4)c4ccccc34)ccn2)ccc1C(=O)NCCC1CCN(C)CC1 [17(bs), 4-((4-((4-(3-(3-(tert-Butyl)-5-(methylsulfonamido)phenyl)ureido)naphthalen-1-yl)oxy)pyridin-2-yl)amino)-2-methoxy-N-(2-(1-methylpiperidin-4-yl)ethyl)benzamide] | 90.9% | 48.7% | 0.3%
2 | COc1cc(Nc2cc(Oc3ccc(NC(=O)Nc4cc(C(C)(C)C)cc(NS(C)(=O)=O)c4OC)c4ccccc34)ccn2)ccc1C(=O)NCC(CO)(CO)CO [Example 38, 4-((4-((4-(3-(5-(tert-Butyl)-2-methoxy-3-(methylsulfonamido)phenyl)ureido)naphthalen-1-yl)oxy)pyridin-2-yl)amino)-N-(3-hydroxy-2,2-bis(hydroxymethyl)propyl)-2-methoxybenzamide] | 90.0% | 63.7% | 6.0%
3 | COc1cc(Nc2cc(Oc3ccc(NC(=O)Nc4cc(C(C)(C)C)cc(C(=O)NCCO)c4OC)c4ccccc34)ccn2)ccc1C(=O)NCCN1CC[S+]([O-])CC1 [Example 32, 5-(tert-Butyl)-N-(2-hydroxyethyl)-2-methoxy-3-(3-(4-((2-((3-methoxy-4-((2-(1-oxidothiomorpholino)ethyl)carbamoyl)phenyl)amino)pyridin-4-yl)oxy)naphthalen-1-yl)ureido)benzamide] | 95.4% | 43.1% | 2.5%
4 | COc1cc(Nc2cc(Oc3ccc(NC(=O)Nc4cc(C(C)(C)C)cc(NS(C)(=O)=O)c4OC)c4ccccc34)ccn2)cc(OC)c1C(=O)NCCCN1CCOCC1 [Example 23, 4-((4-((4-(3-(5-(tert-Butyl)-2-methoxy-3-(methylsulfonamido)phenyl)ureido)naphthalen-1-yl)oxy)pyridin-2-yl)amino)-2,6-dimethoxy-N-(3-morpholinopropyl)benzamide] | 92.4% | 88.9% | 89.8%
5 | COc1cc(Nc2cc(Oc3ccc(NC(=O)Nc4cc(C(C)(C)C)cc(NS(C)(=O)=O)c4OC)c4ccccc34)ccn2)ccc1C(=O)NC[C@H](O)[C@@H](O)[C@H](O)[C@H](O)CO [17(bw), 4-((4-((4-(3-(5-(tert-Butyl)-2-methoxy-3-(methylsulfonamido)phenyl)ureido)naphthalen-1-yl)oxy)pyridin-2-yl)amino)-2-methoxy-N-((2S,3R,4R,5R)-2,3,4,5,6-pentahydroxyhexyl) benzamide] | 94.5% | 96.2% | 92.4%
6 | COc1cc(Nc2cc(Oc3ccc(NC(=O)Nc4cc(C(C)(C)C)cc(NS(C)(=O)=O)c4OC)c4ccccc34)ccn2)ccc1S(=O)(=O)CCCN1CCN(C)CC1 [17(ch), N-(5-(tert-Butyl)-2-methoxy-3-(3-(4-((2-((3-methoxy-4-((3-(4-methylpiperazin-1-yl)propyl)sulfonyl)phenyl)amino)pyridin-4-yl)oxy)naphthalen-1-yl)ureido)phenyl)methanesulfonamide] | 82.0% | 10.2% | 0.7%
7 | COc1cc(Nc2cc(Oc3ccc(NC(=O)Nc4cc(C(C)(C)C)cc(NS(C)(=O)=O)c4OC)c4ccccc34)ccn2)ccc1C(=O)NCCCC[C@H](N)C(=O)O [17(bu), (S)-2-Amino-6-(4-((4-((4-(3-(5-(tert-butyl)-2-methoxy-3-(methylsulfonamido)phenyl)-ureido)naphthalen-1-yl)oxy)pyridin-2-yl)amino)-2-methoxybenzamido)hexanoic acid] | 92.6% | 92.6% | 91.7%
8 | COc1cc(Nc2cc(Oc3ccc(NC(=O)Nc4cc(C(C)(C)C)cc(NS(C)(=O)=O)c4OC)c4ccccc34)ccn2)ccc1C(=O)N[C@@H]1CCN(C)C1 [17(cq), (R)-4-((4-((4-(3-(5-(tert-Butyl)-2-methoxy-3-(methylsulfonamido)phenyl)ureido)-naphthalen-1-yl)oxy)pyridin-2-yl)amino)-2-methoxy-N-(1-methylpyrrolidin-3-yl)benzamide] | 74.3% | 9.0% | 0.7%
9 | COc1cc(Nc2cc(Oc3ccc(NC(=O)Nc4cc(C(C)(C)C)cc(NS(C)(=O)=O)c4OC)c4ccccc34)ccn2)ccc1S(=O)(=O)N(C)CCN1CCN(C)CC1 [17(bb), 4-((4-((4-(3-(5-(tert-Butyl)-2-methoxy-3-(methylsulfonamido)phenyl)ureido)naphthalen-1-yl)oxy)pyridin-2-yl)amino)-2-methoxy-N-methyl-N-(2-(4-methylpiperazin-1-yl)ethyl)benzenesulfonamide] | 90.9% | 19.2% | 0.2%
10 | COc1cc(Nc2nccc(Oc3ccc(NC(=O)Nc4cc(C(C)(C)C)cc(NS(C)(=O)=O)c4OC)c4ccccc34)n2)ccc1C(=O)NCCCN1CCN(C)CC1 [17(ap), 4-((4-((4-(3-(5-(tert-Butyl)-2-methoxy-3-(methylsulfonamido)phenyl)ureido)naphthalen-1-yl)oxy)pyrimidin-2-yl)amino)-2-methoxy-N-(3-(4-methylpiperazin-1-yl)propyl)benzamide] | 97.8% | 40.1% | 0.6%
11 | COc1cc(Nc2cc(Oc3ccc(NC(=O)Nc4cc(C(C)(C)C)cc(NS(C)(=O)=O)c4OC)c4ccccc34)ccn2)ccc1C(=O)NCCOCCOCCC(=O)O [17(x), 3-[2-[2-[[4-[[4-[[4-[[5-tert-butyl-3-(methanesulfonamido)-2-methoxyphenyl]carbamoyl-amino]-1-naphthyl]oxy]-2-pyridyl]amino]-2-methoxy-benzoyl]amino]ethoxy]ethoxy]propanoic acid] | 95.4% | 94.2% | 38.9%
12 | COc1cc(Nc2cc(Oc3ccc(NC(=O)Nc4cc(C(C)(C)C)cc(NS(C)(=O)=O)c4OC)c4ccccc34)ccn2)ccc1C(=O)NCCN1CCN(C(=O)CC[C@H](N)C(=O)O)CC1 [17(cl), (S)-2-Amino-5-(4-(2-(4-((4-((4-(3-(5-(tert-butyl)-2-methoxy-3-(methylsulfonamido)-phenyl)ureido)naphthalen-1-yl)oxy)pyridin-2-yl)amino)-2-methoxybenzamido)ethyl)piperazin-1-yl)-5-oxopentanoic acid] | 93.6% | 94.0% | 93.7%
13 | COc1cc(Nc2cc(Oc3ccc(NC(=O)Nc4cc(C(C)(C)C)cc(NS(C)(=O)=O)c4OC)c4ccccc34)ccn2)ccc1C(=O)NCCN1CCN(C(=O)CCC(=O)O)CC1 [17(ck), 4-(4-(2-(4-((4-((4-(3-(5-(tert-Butyl)-2-methoxy-3-(methylsulfonamido)phenyl)ureido)-naphthalen-1-yl)oxy)pyridin-2-yl)amino)-2-methoxybenzamido)ethyl)piperazin-1-yl)-4-oxobutanoic acid] | 96.1% | 96.1% | 95.5%
14 | COc1cc(Nc2cc(Oc3ccc(NC(=O)Nc4cc(C(C)(C)C)cc(NS(C)(=O)=O)c4OC)c4ccccc34)ccn2)ccc1C(=O)NCCC(=O)O [17(ay), 3-(4-((4-((4-(3-(5-(tert-Butyl)-2-methoxy-3-(methylsulfonamido)phenyl)ureido)-naphthalen-1-yl)oxy)pyridin-2-yl)amino)-2-methoxybenzamido)propanoic acid] | 95.3% | 94.6% | 90.1%
15 | COc1cc(Nc2cc(Oc3ccc(NC(=O)Nc4cc(C(C)(C)C)cc(NS(C)(=O)=O)c4OC)c4ccccc34)ccn2)ccc1S(=O)(=O)N(C)CCCN1CCN(C)CC1 [Example 25, 4-((4-((4-(3-(5-(tert-Butyl)-2-methoxy-3-(methylsulfonamido)phenyl)ureido)naphthalen-1-yl)oxy)pyridin-2-yl)amino)-2-methoxy-N-methyl-N-(3-(4-methylpiperazin-1-yl)propyl)benzenesulfonamide] | 91.8% | 78.9% | 0.7%
16 | COc1cc(Nc2cc(Oc3ccc(NC(=O)Nc4cc(C(C)(C)C)cc(NS(C)(=O)=O)c4OC)c4ccccc34)ccn2)ccc1C(=O)NCCN1CC[C@@H](O)C1 [17(cr), (R)-4-((4-((4-(3-(5-(tert-Butyl)-2-methoxy-3-(methylsulfonamido)phenyl)ureido)-naphthalen-1-yl)oxy)pyridin-2-yl)amino)-N-(2-(3-hydroxypyrrolidin-1-yl)ethyl)-2-methoxybenzamide] | 81.1% | 18.0% | 0.9%
